Measurements: US20260096569A1, “EDIBLE COATING WITH ANTIMICROBIAL PROPERTIES” (priority 2021, published 2026)
Entries after “also recorded” stand apart in the source; their conditions may differ. Read-outs that look alike come from different tables or passages of the source.

Assays:
[1] = test system: Colletotrichum; assay: Salicylic acid, sodium salicylate and chitosan on stem end rot of infected California avocados; format: in vivo
Procedure: To determine the impact of salicylic acid, sodium salicylate, and chitosan on stem end rot (Colletotrichum), California avocados size 96 were infected with 10^3 Colletotrichum spores and treated with 0.01% of an imidazole antifungal agent, such as Prochloraz, 0.05% salicylic acid, 0.1% salicylic acid, 0.2% salicylic acid, 1% sodium salicylate, or 1% chitosan+5 mM C10 monoglyceride. Uninfected and infected controls were not exposed to treatments. Following treatment, the percent disease index of stem end rot was determined for each avocado. […] However, the 1% chitosan+5 mM C10 monoglyceride treatment sample size was 14 avocados.

[2] = Mixture with increasing carvacrol and ethanol on organic lemons: mass loss and quality; format: in vivo; conditions: heated drying in a drying tunnel
Procedure: Specifically, 1 g/L carvacrol+5 g/L ethanol, 2 g/L carvacrol+10 g/L ethanol, 3 g/L carvacrol+15 g/L ethanol, 6 g/L carvacrol+30 g/L ethanol, or 8 g/L carvacrol+40 g/L ethanol. Batches of 120 lemons per condition were used. Lemons were dipped into a treatment or left untreated, dried in heated conditions in a drying tunnel, and stored at ambient conditions. Mass loss was measured.

[3] = test system: vascular browning; assay: Mixture and carvacrol on avocados: incidence of vascular browning; format: in vivo; conditions: 10 g/L carvacrol alone
Procedure: (§1) Fifty-four avocados were tested per treatment. Avocados were dipped into treatment liquids and allowed to dry. Respiration (CO2 production), mass loss, disease indices of stem end rot and vascular browning were measured. […] The timing of spoilage was affected by treatments (FIG. 14).

[4] = Organic mixture and carvacrol on wounded organic lemons: mass loss and skin damage; format: in vivo; conditions: carvacrol alone (5 g/L carvacrol+0.25 g/L sodium stearate)
Text: To determine the impact of an organic mixture of glycerol monostearate and sodium stearate mixed with carvacrol on mass loss and mold incidence in organic lemons, unwaxed California organic lemons sized 140 were exposed to 30 g/L an organic mixture of glycerol monostearate and sodium stearate mixed, 30 g/L an organic mixture of glycerol monostearate and sodium stearate+5 g/L carvacrol, or 5 g/L carvacrol+0.25 g/L sodium stearate, or were untreated. Batches of 140 lemons per condition were used. Lemons were physically wounded with the stem of another lemon, dipped into a treatment or left untreated, and dried in ambient conditions. Mass loss and disease incidence (% of group with mold) were measured. The addition of carvacrol to an organic mixture of glycerol monostearate and sodium stearate mixed with carvacrol increased mass loss factor to 1.7×compared to the organic mixture of glycerol monostearate and sodium stearate mixed with carvacrol alone, which was 1.3× of the untreated group (FIG. 15A). The addition of carvacrol to an organic mixture of glycerol monostearate and sodium stearate mixed with carvacrol reduced the incidence of mold ˜12% from untreated lemons and 22% from an organic mixture of glycerol monostearate and sodium stearate mixed with carvacrol alone treated lemons after 6.5 days of ambient storage (FIG. 15B).

[5] = Mixture and carvacrol on organic lemons in cold storage: mass loss and quality; format: in vivo; conditions: carvacrol alone (10 g/L carvacrol+50 g/L ethanol), dried in ambient conditions
Procedure: Batches of 120 lemons per condition were used. Lemons were dipped into a treatment or left untreated, dried in ambient conditions, and stored at 8° C., 80% relative humidity for several weeks. Mass loss was measured.

[6] = test system: stem end rot; assay: Mixture and carvacrol on avocados: incidence of stem end rot; format: in vivo; conditions: 10 g/L carvacrol alone
Procedure: as §1

[7] = Mixture and carvacrol on avocados: respiration and mass loss; format: in vivo
Procedure: as §1

[8] = test system: Colletotrichum; assay: Screening for stem end rot (Colletotrichum) infection control, California avocados; format: in vivo
Text: To screen for infection control of stem end rot (Colletotrichum) with epicatechin, ASM, and MeSA (methyl salicylate), California avocados size 84 were infected with Colletotrichum spores (103 spores/ml) and treated with 0.01% an imidazole antifungal agent, such as Prochloraz, 0.1% epicatechin, 0.01% ASM, or 0.1% MeSA, as indicated. Uninfected and infected controls were not exposed to treatments. […] Disease index is on a scale from 0-1 and takes into account both the percent of fruit infected and the average severity of the infection in the sample group. The average severity is on a scale from 0-4. Percent disease index is calculated as follows: (Percent infected*Average infection severity)/4.

[9] = test system: Colletotrichum; assay: Salicylic acid and chitosan combinations on stem end rot of infected Mexican avocados; format: in vivo; conditions: infected Mexican avocados size 84, 0.2%, compared with the other treatments
Procedure: To determine the impact of salicylic acid and chitosan combinations on stem end rot (Colletotrichum), Mexican avocados size 84 were infected with 103 Colletotrichum spores and treated with 0.01% of an imidazole antifungal agent, such as Prochloraz, 0.1% low molecular weight chitosan (1 g/L), 0.2% salicylic acid, or 0.2% salicylic acid+0.1% chitosan. Uninfected and infected controls were not exposed to treatments. Following treatment, the percent disease index of stem end rot was determined for each avocado.

[10] = test system: stem end rot; assay: Avocado storage: incidence and severity of stem end rot, salicylic acid; format: in vivo; conditions: Mexican avocados size 60, 0.6 g/L salicylic acid, two days
Text: (§2) Avocados were Mexican avocados size 60. […] Avocados were monitored for two days for CO2 production (respiration) rate, mass loss, incidence of stem end rot, and severity of stem end rot disease. […] This could be due to changes in the barrier stability or barrier properties when salicylic acid is combined with the mixture of glycerol monostearate and sodium stearate. When comparing the mass loss factor using the salicylic acid+the mixture of glycerol monostearate and sodium stearate to the mixture itself, there was a 0.35× improvement. Severity of stem end rot disease was measured on a 1-4 stem end rot severity scale (STR).

[11] = Avocado storage, five days: CO2 production (respiration), salicylic acid and mixture; format: in vivo; conditions: Mexican avocados size 60, 0.6 g/L or 2.0 g/L salicylic acid
Text: (§3) To determine the impact of salicylic acid and a mixture of 94% glycerol monostearate and a 6% fatty acid salt combinatorial treatment on avocado, Mexican avocados size 60 were exposed to 0.6 g/L salicylic acid, 2.0 g/L salicylic acid, 30 g/L a mixture of glycerol monostearate and sodium stearate, or 0.6 g/L salicylic acid+30 g/L a mixture of glycerol monostearate and sodium stearate treatments. To treat, avocados were removed form cold storage and left at room temperature for four hours. Avocados were then dipped in treatments as indicated and dried in a drying tunnel. Uninfected controls were not exposed to treatments. Avocados were monitored for five days for CO2 production (respiration) rate, mass loss, incidence of stem end rot, and severity of stem end rot disease on a 1-4 stem end rot severity scale (STR). The experiment was concluded when untreated avocados reached a ripeness of <35 shore. […] This may be due to changes in barrier stability or properties.

[12] = Avocado storage: CO2 production (respiration) and mass loss, salicylic acid; format: in vivo; conditions: Mexican avocados size 60 stored about one month, 0.6 g/L, two days
Text: as §2

[13] = test system: stem end rot; assay: Avocado storage, five days: incidence and severity of stem end rot; format: in vivo; conditions: Mexican avocados size 60, five days
Text: as §3

[14] = Viscosity and pH of salicylic acid and mixture combinations; format: physicochemical; conditions: salicylic acid 0.15-1.0 g/L in water
Text: The viscosity decreased as the mixture concentration increased, and as the salicylic acid concentration increased (FIG. 11A). […] The maximum amount of salicylic acid that could be added was about 2% of the weight of the mixture (FIG. 10).

[15] = test system: Colletotrichum; conditions: cited from earlier work
[16] = test system: Colletotrichum; assay: Salicylic acid and pH on stem end rot of infected Mexican avocados; format: in vivo
Procedure: To determine the impact of salicylic acid and pH on stem end rot (Colletotrichum), Colletotrichum disease indices of avocados were determined with various treatments. […] Mexican avocados size 84 were infected with 103 Colletotrichum spores and treated with 1M NaOH pH 6, 0.01% of an imidazole antifungal agent, such as Prochloraz, 0.2% salicylic acid pH 2.5, or 0.2% salicylic acid pH 6. pH was adjusted with 1M NaOH. Uninfected and infected controls were not exposed to treatments. Infection rate was near 100% for the water treated control. Treatment of infected avocados with pH 2.5. […] Treatment with salicylic acid at pH 2.5 reduced percent infection by nearly 70%. However, the percent disease index remained at 100% during treatment with salicylic acid at a pH of 6 (FIG. 7).

[17] = test system: Colletotrichum; assay: Sequential salicylic acid and mixture treatments on stem end rot of infected Mexican avocados; format: in vivo
Procedure: The pH was adjusted with 1M NaOH. Salicylic acid treatments were performed and dried before subsequent treatments with the mixture of glycerol monostearate and sodium stearate were performed for combinatorial treatments. Controls with salicylic acid treatment and a subsequent treatment with water were also performed. Uninfected controls were not exposed to treatments. Following treatment, the disease index of stem end rot was determined for each avocado. […] Salicylic acid was effective in treatments with salicylic acid first and the mixture of glycerol monostearate and sodium stearate treatment second (FIG. 9).

[18] = infected California avocados size 84, treatment 0.01%

SMILES: O=C([O-])c1ccccc1O.[Na+] [sodium salicylate]
- percent disease index of stem end rot ([1]; infected California avocados size 96, 1%): did not significantly reduce the disease index

SMILES: Cc1ccc(C(C)C)cc1O [carvacrol]
- carvacrol lemon skin burns [2]: prevented carvacrol lemon skin burns
- disease incidence of vascular browning [3]: almost eliminated disease incidence
- damage to lemon skin [4]: damaged the lemon skin
- damage to lemon skin [5]: skin burns; also recorded: damaged the lemon skin
- disease incidence of stem end rot [6]: almost eliminated disease incidence
- respiration (CO2 production) ([7]; California avocados sized 96, 10 g/L carvacrol alone): may have accelerated respiration
- mass loss ([7]; California avocados sized 96, 10 g/L carvacrol, versus untreated avocados): negligible effect on mass loss

SMILES: CCCN(CCOc1c(Cl)cc(Cl)cc1Cl)C(=O)n1ccnc1 [Prochloraz]
- percent disease index for stem end rot [8, 18]: effective at decreasing the observed disease index
- percent disease index of stem end rot ([1]; infected California avocados size 96, 0.01%): effective at decreasing the disease index compared to the infected control

SMILES: CSC(=O)c1cccc2nnsc12 [ASM, Acibenzolar-S-Methyl]
- percent disease index for stem end rot [8, 18]: significantly smaller disease indices compared to the infected control

SMILES: O=C(O)c1ccccc1O [salicylic acid]
- percent disease index of stem end rot [9]: greatest effect
- incidence of stem end rot [10]: not incidence
- severity of stem end rot disease (1-4 STR scale) [10]: reduce the severity
- CO2 production (respiration) [11]: did not increase CO2 production (respiration) compared to the control
- CO2 production (respiration) rate [12]: increased the respiration compared to the control
- incidence of stem end rot [13]: slight reductions
- severity of stem end rot (1-4 STR scale) [13]: slight reductions
- pH in water [14]: 2-2.5
- germination ([15]; pH 2.5): inhibits germination
- germination ([15]; pH raised to pH 6): loses its inhibitory effect
- reduction of percent infection ([16]; infected Mexican avocados size 84, 0.2% salicylic acid pH 2.5): ~70%
- percent disease index ([16]; infected Mexican avocados size 84, 0.2% salicylic acid pH 6): 100%
- percent disease index of stem end rot ([1]; infected California avocados size 96, 0.05%): reduced the stem end rot disease index
- percent disease index of stem end rot ([1]; infected California avocados size 96, 0.1%): reduced the stem end rot disease index
- percent disease index of stem end rot ([1]; infected California avocados size 96, 0.2%): reduced the stem end rot disease index; also recorded: most effective
- percent disease index of stem end rot versus infected water control ([17]; infected Mexican avocados size 84, decreased concentration (0.06%), pH 2.3): more effective than then infected water control treatment
- percent disease index of stem end rot, effect of decreasing concentration ([17]; infected Mexican avocados size 84, from 0.2% to 0.06%, pH 2.3): reduced the effectiveness of the treatment
- percent disease index of stem end rot ([17]; salicylic acid treatment dried, then a second treatment (mixture or water)): reduced the percent disease indices

SMILES: COC(=O)c1ccccc1O [MeSA, methyl salicylate]
- percent disease index for stem end rot ([8]; infected California avocados size 84, treatment 0.1%): no observed effect
